From patent US9133182B2, “Selective androgen receptor modulators” (Radius Health, Inc., priority 2010, dated 2015)
pIC50: −log10 of the molar value.

Target: androgen receptor (Rattus norvegicus (Rat), UniProt P15207)
Assay: androgen receptor binding assay (fluorescence polarization, Invitrogen)
Settings: AR-Fluormone complex, 4 h at room temperature; Table 1
Experimental: The assay was performed as specified by the manufacturer (Invitrogen, Madison, Wis.). Briefly, 1 μl of 10 mM compound was added to 500 μl of AR screening buffer in a 1.5 ml eppendorf tube to make a 2×10^−5M stock. 10-fold serial dilutions of the test compounds were prepared ranging in concentration from 10^−5M to 10^−12M. Each dilution was added in triplicate to a black 384-microtiter plate. The test compounds will be diluted 2-fold in the final reaction. 2×AR-Fluormone™ complex was prepared with 2 nM Flourmone AL Green™ and 30 nM AR. 25 μl of 2×complex was aliquoted to each reaction well, such that the final reaction volume was 50 μl per well. Plate was sealed with a foil cover and incubated in the dark at room temperature for 4 h. Polarization values for each well were measured. The polarization values were plotted against the concentration of the test compound. […] As a control, a competition curve for R1881 (methyltrienolone) was performed for each assay.

Chain of androgen receptor (P15207 651-902): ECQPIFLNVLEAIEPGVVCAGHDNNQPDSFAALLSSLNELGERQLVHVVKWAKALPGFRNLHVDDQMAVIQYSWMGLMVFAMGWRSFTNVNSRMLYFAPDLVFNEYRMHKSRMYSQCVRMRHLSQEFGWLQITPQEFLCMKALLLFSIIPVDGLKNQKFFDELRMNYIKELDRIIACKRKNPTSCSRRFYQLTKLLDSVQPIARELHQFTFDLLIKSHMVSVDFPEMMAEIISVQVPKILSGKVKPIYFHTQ

Compound	Binding IC50 (nM)	pIC50
O=C1CC[C@H]([C@@H](O)C(F)(F)F)N1c1ccc2nnsc2c1 [Example 6, (R)-1-(Benzo[d][1,2,3]thiadiazol-6-yl)-5-((R)-2,2,2-trifluoro-1-hydroxyethyl)pyrrolidin-2-one]	No binding	–
O=C1CC[C@H]([C@H](O)C(F)(F)F)N1c1ccc2nnsc2c1 [Example 5, (R)-1-(Benzo[d][1,2,3]thiadiazol-6-yl)-5-((S)-2,2,2-trifluoro-1-hydroxyethyl)pyrrolidin-2-one]	–	6.28
Cc1c(N2C(=O)O[C@H](C)[C@@H]2[C@@H](O)C(F)(F)F)ccc(C#N)c1Cl [Example 16, 2-chloro-3-methyl-4-((4S,5R)-5-methyl-2-oxo-4-((R)-2,2,2-trifluoro-1-hydroxyethyl)oxazolidin-3-yl)benzonitrile]	–	< 6.00
C[C@@H]1OC(=O)N(c2ccc(C#N)c(Cl)c2)[C@H]1[C@@H](O)C(F)(F)F [Example 22, 2-Chloro-4-((4S,5S)-5-methyl-2-oxo-4-((R)-2,2,2-trifluoro-1-hydroxyethyl)oxazolidin-3-yl)benzonitrile]	–	6.68
Cc1c(N2C(=O)CC[C@@H]2[C@@H](O)C(F)(F)F)ccc(C#N)c1C(F)(F)F [Example 4, 3-methyl-4-((R)-2-oxo-5-((R)-2,2,2-trifluoro-1-hydroxyethyl)pyrrolidin-1-yl)-2-(trifluoromethyl)benzonitrile]	–	6.92
Cc1c(N2C(=O)O[C@H](C)[C@@H]2[C@H](O)C(F)(F)F)ccc(C#N)c1Cl [Example 15, 2-chloro-3-methyl-4-((4S,5R)-5-methyl-2-oxo-4-((S)-2,2,2-trifluoro-1-hydroxyethyl)oxazolidin-3-yl)benzonitrile]	–	6.70
N#Cc1ccc(N2C(=O)OC[C@H]2[C@@H](O)C(F)(F)F)cc1Cl [Example 10, 2-chloro-4-((S)-2-oxo-4-((R)-2,2,2-trifluoro-1-hydroxyethyl)oxazolidin-3-yl)benzonitrile]	–	< 6.00
Cc1c(N2C(=O)OC[C@@H]2[C@H](O)C(F)(F)F)ccc(C#N)c1Cl [Example 11, 2-chloro-3-methyl-4-((R)-2-oxo-4-((S)-2,2,2-trifluoro-1-hydroxyethyl)oxazolidin-3-yl)benzonitrile]	–	7.60
N#Cc1ccc(N2C(=O)OC[C@@H]2[C@@H](O)C(F)(F)F)cc1C(F)(F)F [Example 8, 4-((R)-2-oxo-4-((R)-2,2,2-trifluoro-1-hydroxyethyl)oxazolidin-3-yl)-2-(trifluoromethyl)benzonitrile]	–	< 6.00
CN1C[C@H]([C@@H](O)C(F)(F)F)N(c2ccc(C#N)c(C(F)(F)F)c2)C1=O [Example 26, 4-((R)-5-((R)-2,2,2-trifluoro-1-hydroxyethyl)-3-methyl-2-oxoimidazolidin-1-yl)-2-(trifluoromethyl)benzonitrile]	–	< 6.00
N#Cc1ccc(N2C(=O)CC[C@@H]2[C@@H](O)C(F)(F)F)cc1C(F)(F)F [Example 2, 4-((R)-2-oxo-5-((R)-2,2,2-trifluoro-1-hydroxyethyl)pyrrolidin-1-yl)-2-(trifluoromethyl)benzonitrile]	–	7.00
Cc1c(N2C(=O)O[C@@H](C)[C@@H]2[C@@H](O)C(F)(F)F)ccc(C#N)c1Cl [Example 18, 2-chloro-3-methyl-4-((4S,5S)-5-methyl-2-oxo-4-((R)-2,2,2-trifluoro-1-hydroxyethyl)oxazolidin-3-yl)benzonitrile]	–	6.15
Cc1c(N2C(=O)OC[C@@H]2[C@@H](O)C(F)(F)F)ccc(C#N)c1Cl [Example 12, 2-chloro-3-methyl-4-((R)-2-oxo-4-((R)-2,2,2-trifluoro-1-hydroxyethyl)oxazolidin-3-yl)benzonitrile]	–	6.03
Cc1c(N2C(=O)O[C@@H](C)[C@@H]2[C@@H](O)C(F)(F)F)ccc(C#N)c1C(F)(F)F [Example 24, 3-methyl-4-((4S,5S)-5-methyl-2-oxo-4-((R)-2,2,2-trifluoro-1-hydroxyethyl)oxazolidin-3-yl)-2-(trifluoromethyl)benzonitrile]	–	< 6.00
Cc1c(N2C(=O)O[C@@H](C)[C@@H]2[C@H](O)C(F)(F)F)ccc(C#N)c1C(F)(F)F [Example 23, 3-methyl-4-((4S,5S)-5-methyl-2-oxo-4-((S)-2,2,2-trifluoro-1-hydroxyethyl)oxazolidin-3-yl)-2-(trifluoromethyl)benzonitrile]	–	7.48

Same assay, conditions: AR-Fluormone complex, 4 h at room temperature; Table 2

Compound	pIC50
O=C1CC[C@H]([C@H](O)C(F)(F)F)N1c1ccc(Cl)c(Cl)c1 [Example 27, (R)-1-(3,4-dichlorophenyl)-5-((S)-2,2,2-trifluoro-1-hydroxyethyl)pyrrolidin-2-one]	7.21
Cc1c(N2C(=O)CC[C@@H]2[C@@H](O)C(F)(F)F)ccc(C#N)c1Cl [Example 30, 2-chloro-4-((R)-2-((R)-2,2,2-trifluoro-1-hydroxyethyl)-5-oxopyrrolidin-1-yl)-3-methylbenzonitrile]	6.31
O=C1CC[C@H]([C@@H](O)C(F)(F)F)N1c1ccc(Cl)c(Cl)c1 [Example 28, (R)-1-(3,4-dichlorophenyl)-5-((R)-2,2,2-trifluoro-1-hydroxyethyl)pyrrolidin-2-one]	< 6.00
C[C@H]1OC(=O)N(c2ccc(C#N)c(Cl)c2)[C@H]1[C@@H](O)C(F)(F)F [Example 39, 2-chloro-4-((4S,5R)-4-((R)-2,2,2-trifluoro-1-hydroxyethyl)-5-methyl-2-oxooxazolidin-3-yl)benzonitrile]	6.26
C[C@H]1OC(=O)N(c2ccc(C#N)c(Cl)c2)[C@H]1[C@H](O)C(F)(F)F [Example 38, 2-chloro-4-((4S,5R)-4-((S)-2,2,2-trifluoro-1-hydroxyethyl)-5-methyl-2-oxooxazolidin-3-yl)benzonitrile]	6.82
N#Cc1ccc(N2C(=O)CC[C@@H]2[C@@H](O)C(F)(F)F)cc1Cl [Example 33, 2-chloro-4-((R)-2-((R)-2,2,2-trifluoro-1-hydroxyethyl)-5-oxopyrrolidin-1-yl)benzonitrile]	7.19
Cc1c(N2C(=O)O[C@H](C)[C@@H]2[C@@H](O)C(F)(F)F)ccc(C#N)c1C(F)(F)F [Example 35, 4-((4S,5R)-4-((R)-2,2,2-trifluoro-1-hydroxyethyl)-5-methyl-2-oxooxazolidin-3-yl)-2-(trifluoromethyl)-3-methylbenzonitrile]	< 5.00
C[C@H]1OC(=O)N(c2ccc(C#N)c(C(F)(F)F)c2)[C@H]1[C@H](O)C(F)(F)F [Example 36, 4-((4S,5R)-4-((S)-2,2,2-trifluoro-1-hydroxyethyl)-5-methyl-2-oxooxazolidin-3-yl)-2-(trifluoromethyl)benzonitrile]	< 6.00
C[C@H]1OC(=O)N(c2ccc(C#N)c(C(F)(F)F)c2)[C@H]1[C@@H](O)C(F)(F)F [Example 37, 4-((4S,5R)-4-((R)-2,2,2-trifluoro-1-hydroxyethyl)-5-methyl-2-oxooxazolidin-3-yl)-2-(trifluoromethyl)benzonitrile]	< 6.00
Cc1c(N2C(=O)O[C@H](C)[C@@H]2[C@H](O)C(F)(F)F)ccc(C#N)c1C(F)(F)F [Example 34, 4-((4S,5R)-4-((S)-2,2,2-trifluoro-1-hydroxyethyl)-5-methyl-2-oxooxazolidin-3-yl)-2-(trifluoromethyl)-3-methylbenzonitrile]	< 6.00

System: immature, castrated rat (levator ani and bulba cavernous, LABC)
Assay: In vivo rat Herschberger assay, LABC weight
Design: key: no = no activity observed at highest dose tested.; yes = increased LABC weight relative to castrated vehicle control
Settings: once daily oral gavage for 4 days, Table 2
Description: In Vivo Rat Model of Androgen and Anabolic Activity-Rat Herschberger Assay
The following is a typical procedure of the in vivo evaluation of the selective androgens of this invention. In particular, this assay looks primarily at the ability of the selective androgens of this invention to increase muscle size in an immature, castrated rat. In addition, androgenic effects are looked at primarily by weighing the prostate and seminal vesicles. Selective compounds will show a greater increase in the levator ani relative to the prostate and seminal vesicles when compared to testosterone treated, castrated animals or to intact animals that have not been treated. Immature Sprague Dawley male rats were obtained Charles River Laboratories (Stoneridge, N.Y.). All animals were maintained in a temperature and humidity controlled room with a 12 hr light: 12 hr dark cycle, with ad lib access to food (TD 291615, Teklad, Madison, Wis.) and water. Rats were anesthetized and orchidectomized (GDX) or sham surgery (SHAM) was performed. After a 7-day recovery period, the animals were randomized according to weight and assigned to treatment groups (n=5), SHAM, OVX+vehicle, OVX+Cpd treated. Testosterone propionate (TP 1 mg/kg in 5% DMSO/95% corn oil) was administered by once daily subcutaneous injections, while the compounds of the invention are dosed in vehicle (0.5% carboxymethylcellulose) was administered by once daily oral gavage. The rats were then dosed once daily for 4 days. All animals were euthanized via carbon dioxide inhalation 24 hs after the last dose. The prostate, seminal vesicle and levator ani and bulba cavernous (LABC) tissues were removed, weighed and recorded. An increase in mean LABC indicates anabolic activity for that particular compound with regard to oral dosing typically at a maximum tested dose of between 1 mg/kg and 30 mg/kg—see Table 1.

Compound	Oral activity in Herscheberger assay on LABC weight
O=C1CC[C@H]([C@H](O)C(F)(F)F)N1c1ccc(Cl)c(Cl)c1 [Example 27, (R)-1-(3,4-dichlorophenyl)-5-((S)-2,2,2-trifluoro-1-hydroxyethyl)pyrrolidin-2-one]	yes
Cc1c(N2C(=O)CC[C@@H]2[C@@H](O)C(F)(F)F)ccc(C#N)c1Cl [Example 30, 2-chloro-4-((R)-2-((R)-2,2,2-trifluoro-1-hydroxyethyl)-5-oxopyrrolidin-1-yl)-3-methylbenzonitrile]	no

Same assay, conditions: once daily oral gavage for 4 days, maximum tested dose between 1 mg/kg and 30 mg/kg, Table 1

Compound	Oral activity in Herscheberger assay on LABC weight
C[C@@H]1OC(=O)N(c2ccc(C#N)c(Cl)c2)[C@H]1[C@@H](O)C(F)(F)F [Example 22, 2-Chloro-4-((4S,5S)-5-methyl-2-oxo-4-((R)-2,2,2-trifluoro-1-hydroxyethyl)oxazolidin-3-yl)benzonitrile]	yes
Cc1c(N2C(=O)OC[C@@H]2[C@H](O)C(F)(F)F)ccc(C#N)c1Cl [Example 11, 2-chloro-3-methyl-4-((R)-2-oxo-4-((S)-2,2,2-trifluoro-1-hydroxyethyl)oxazolidin-3-yl)benzonitrile]	yes
CN1C[C@H]([C@@H](O)C(F)(F)F)N(c2ccc(C#N)c(C(F)(F)F)c2)C1=O [Example 26, 4-((R)-5-((R)-2,2,2-trifluoro-1-hydroxyethyl)-3-methyl-2-oxoimidazolidin-1-yl)-2-(trifluoromethyl)benzonitrile]	no
C[C@@H]1OC(=O)N(c2ccc(C#N)c(C(F)(F)F)c2)[C@H]1[C@H](O)C(F)(F)F [Example 19, 4-((4S,5S)-5-methyl-2-oxo-4-((S)-2,2,2-trifluoro-1-hydroxyethyl)oxazolidin-3-yl)-2-(trifluoromethyl)benzonitrile]	yes
C[C@@H]1OC(=O)N(c2ccc(C#N)c(C(F)(F)F)c2)[C@H]1[C@@H](O)C(F)(F)F [Example 20, 4-((4S,5S)-5-methyl-2-oxo-4-((R)-2,2,2-trifluoro-1-hydroxyethyl)oxazolidin-3-yl)-2-(trifluoromethyl)benzonitrile]	yes
